Test results published in paper PMC2704374, “A Multidrug ABC Transporter with a Taste for Salt” (PLoS ONE, 2009).

Molecular target: T1, LmrCD (Lactococcus cremoris, UniProt A2RI37+A2RI38)
T1 construct: gene lmrC
Assay: malachite green ATPase assay
Format: biochemical
Details: 2 mM Mg-ATP; 0.05% DDM

T1 sequence (A2RI38 entry or part of it): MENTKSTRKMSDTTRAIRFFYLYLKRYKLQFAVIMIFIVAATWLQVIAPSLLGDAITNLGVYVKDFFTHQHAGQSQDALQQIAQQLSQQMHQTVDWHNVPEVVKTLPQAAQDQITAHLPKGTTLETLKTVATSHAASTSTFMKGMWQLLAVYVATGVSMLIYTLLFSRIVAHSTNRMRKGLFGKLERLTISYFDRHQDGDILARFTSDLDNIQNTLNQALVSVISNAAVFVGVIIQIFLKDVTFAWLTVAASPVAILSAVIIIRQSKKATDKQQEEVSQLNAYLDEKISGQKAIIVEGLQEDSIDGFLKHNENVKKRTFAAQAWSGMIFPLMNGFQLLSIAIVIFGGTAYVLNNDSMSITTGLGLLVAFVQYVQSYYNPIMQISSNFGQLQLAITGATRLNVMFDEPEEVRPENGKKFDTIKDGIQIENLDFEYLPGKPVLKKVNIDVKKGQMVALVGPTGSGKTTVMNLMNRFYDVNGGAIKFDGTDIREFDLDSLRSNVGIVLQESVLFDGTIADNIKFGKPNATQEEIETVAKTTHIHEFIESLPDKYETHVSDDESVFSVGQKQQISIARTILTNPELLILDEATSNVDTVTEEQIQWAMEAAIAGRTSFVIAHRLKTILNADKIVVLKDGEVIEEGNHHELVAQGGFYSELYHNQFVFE
T1 sequence (A2RI37 entry or part of it): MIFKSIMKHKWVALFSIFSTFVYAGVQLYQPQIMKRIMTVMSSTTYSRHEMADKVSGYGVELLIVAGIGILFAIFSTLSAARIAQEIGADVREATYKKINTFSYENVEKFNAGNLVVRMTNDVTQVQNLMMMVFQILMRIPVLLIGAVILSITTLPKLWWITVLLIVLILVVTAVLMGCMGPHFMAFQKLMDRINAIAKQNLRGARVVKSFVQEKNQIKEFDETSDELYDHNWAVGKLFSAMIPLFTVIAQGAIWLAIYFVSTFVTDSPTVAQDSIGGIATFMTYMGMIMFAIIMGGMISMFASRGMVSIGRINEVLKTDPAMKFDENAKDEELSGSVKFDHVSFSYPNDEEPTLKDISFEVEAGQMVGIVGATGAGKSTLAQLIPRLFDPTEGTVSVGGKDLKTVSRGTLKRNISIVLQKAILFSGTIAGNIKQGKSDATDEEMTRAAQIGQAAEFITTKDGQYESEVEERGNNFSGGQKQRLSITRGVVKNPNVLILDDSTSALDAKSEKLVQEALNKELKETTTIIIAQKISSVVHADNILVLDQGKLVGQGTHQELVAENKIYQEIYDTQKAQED

SMILES: Nc1ncnc2c1ncn2[C@@H]1O[C@H](COP(=O)(O)OP(=O)(O)OP(=O)(O)O)[C@@H](O)[C@H]1O [ATP]
- malachite green ATPase assay: the ATPase activity of the purified multidrug ABC transporter LmrCD from L. lactis
